Data: the NIST ThermoML archive (doi:10.1016/j.jct.2005.08.005)

Experiment: refractive index (other wavelength) (dimensionless); xn = mol fraction of the nth substance listed
Settings: 101.3 kPa, Liquid, Wavelength=632.8 nm, Method described in references 3 and 4 of the article

N#Cc1ccccc1 [benzonitrile] + CCCCCCCCCCCCCCCC
Settings	refractive index
294.62 K, x1 = 1	1.5246
295.4 K, x1 = 0.0997	1.4353
296.2 K, x1 = 0.1982	1.4385
296.22 K, x1 = 0.3022	1.4432
296.49 K, x1 = 0.8855	1.499
296.97 K, x1 = 1	1.5235
297.19 K, x1 = 0.0997	1.4346
297.59 K, x1 = 0.1982	1.438
298.03 K, x1 = 0.3972	1.4472
298.19 K, x1 = 0.3022	1.4423
298.57 K, x1 = 0.8855	1.498
299.03 K, x1 = 0.0997	1.4338
299.08 K, x1 = 1	1.5224
299.56 K, x1 = 0.3972	1.4466
299.75 K, x1 = 0.3022	1.4416
299.78 K, x1 = 0.1982	1.437
300.77 K, x1 = 0.0997	1.433
301.05 K, x1 = 0.3022	1.441
301.05 K, x1 = 0.8855	1.4969
301.17 K, x1 = 0.1982	1.4365
301.26 K, x1 = 0.3972	1.4459
301.39 K, x1 = 1	1.5213
301.64 K, x1 = 0.1982	1.4362
302.7 K, x1 = 0.0997	1.4323
302.75 K, x1 = 0.3972	1.4452
302.86 K, x1 = 0.3022	1.4403
302.96 K, x1 = 0.4976	1.4519
303.42 K, x1 = 1	1.5203
303.45 K, x1 = 0.7947	1.481
303.59 K, x1 = 0.8855	1.4957
303.7 K, x1 = 0.4976	1.4515
303.82 K, x1 = 0.1982	1.4353
304.08 K, x1 = 0.0997	1.4317
304.21 K, x1 = 0.3972	1.4446
304.25 K, x1 = 0.3022	1.4397
304.25 K, x1 = 0.4976	1.4512
304.4 K, x1 = 0.7947	1.4806
304.69 K, x1 = 0.595	1.4585
304.73 K, x1 = 0.4976	1.451
305.22 K, x1 = 0.7947	1.4802
305.41 K, x1 = 0.3972	1.444
305.44 K, x1 = 0.6854	1.4668
305.47 K, x1 = 0.595	1.4582
305.66 K, x1 = 0.1982	1.4346
305.66 K, x1 = 0.4976	1.4507
305.86 K, x1 = 0.0997	1.4309
305.86 K, x1 = 0.3022	1.439
305.89 K, x1 = 0.7947	1.4799
305.92 K, x1 = 1	1.5191
305.98 K, x1 = 0.8855	1.4946
306.25 K, x1 = 0.6854	1.4665
306.37 K, x1 = 0.595	1.4578
306.66 K, x1 = 0.6854	1.4663
306.68 K, x1 = 0.7947	1.4795
307.36 K, x1 = 0.595	1.4574
307.66 K, x1 = 0.6854	1.4658
307.86 K, x1 = 0.8855	1.4937
308.18 K, x1 = 0.595	1.457
308.42 K, x1 = 0.6854	1.4655
